Test results published in patent publication US11548878B2, “Emopamil binding protein binding agent and use thereof” (FUJIFILM Toyama Chemical Co., Ltd., priority 2017, dated 2023).

Molecular target: T1, EBP (Homo sapiens, UniProt Q15125)
T1 construct: A membrane fraction was collected from sigma-1 receptor-deficient human neuroblastoma (SH-SY5Y) cells; endogenous in cells; host or cells: sigma-1 receptor-deficient SH-SY5Y human neuroblastoma cells (membrane fraction)
Assay: EBP Binding Test (Test Example 1): tritium-labeled Compound A binding to membrane fractions of sigma-1 receptor-deficient SH-SY5Y cells with EBP deleted or overexpressed
Experimental: The binding ability of Compound A to EBP was examined. The test was carried out in accordance with Receptor Signal Transduction Protocols, pp. 135-164 (ISBN 978-1-61779-125-3).
A membrane fraction was collected from sigma-1 receptor-deficient human neuroblastoma (SH-SY5Y) cells, in which EBP was deleted or was overexpressed. Inactivated fetal bovine serum was added to a liquid medium DMEM (Dulbecco's Modified Eagle's Medium) to a final concentration of 10%, and then, a Penicillin-Streptomycin solution (10000 U/mL Penicillin-10000 μg/mL Streptmycin) was added to the medium to a final concentration of 100 U/mL Penicillin-100 μg/mL Streptmycin. The SH-SY5Y cells were cultured in the thus prepared medium.
The method of preparing a membrane fraction is as follows. The cells cultured to a subconfluent state were recovered using a cell scraper, and were then suspended in a 50 mM Tris-HCl (pH=7.4) buffer, followed by disintegrating the cells with an ultrasonic disintegrator. The disintegrated solution was centrifuged (1000 g, 10 minutes), and the supernatant was then ultracentrifuged (28000 rpm, 30 minutes). Thereafter, the obtained precipitate was re-suspended in a 50 mM Tris-HCl (pH=7.4) buffer to obtain a membrane fraction. Regarding the thus prepared membrane fraction, the protein concentration was measured according to a BCA method, and the membrane fraction was then adjusted to a concentration of approximately 1 mg/mL. […]
The receptor binding test method is as follows. […] Thereafter, a liquid scintillation cocktail was added thereto, and the radiation dose (CPM) in each well was then measured using a scintillation counter.
The specific binding ability of Compound A to EBP was determined by subtracting the radiation dose of the control (Non-specific binding) from the radiation dose derived from the tritium-labeled Compound A at each concentration (Total binding). Since the amount of the protein used was different depending on the cell membrane, CPM per μg of the membrane fraction protein used in the reaction was calculated (CPM/protein amount).

T1 sequence (Q15125 2-230 limits assumed): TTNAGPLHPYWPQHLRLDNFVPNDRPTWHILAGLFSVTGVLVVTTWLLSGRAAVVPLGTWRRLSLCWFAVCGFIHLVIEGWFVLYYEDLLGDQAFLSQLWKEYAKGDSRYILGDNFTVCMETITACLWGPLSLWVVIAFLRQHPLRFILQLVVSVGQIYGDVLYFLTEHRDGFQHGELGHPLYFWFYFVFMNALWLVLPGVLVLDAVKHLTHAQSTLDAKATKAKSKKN

affinity for EBP (conclusion from FIG. 1 and FIG. 2): high affinity
radiation dose (specific binding, CPM/protein amount) in sigma-1 receptor-deficient and EBP-deficient cells compared with sigma-1 receptor-deficient cells (membrane fraction of SH-SY5Y cells, tritium-labeled Compound A 0.05-100.0 nM, 37° C. for 2 hours, FIG. 1): lower
radiation dose (specific binding, CPM/protein amount) in sigma-1 receptor-deficient and EBP-overexpressing cells compared with sigma-1 receptor-deficient cells (membrane fraction of SH-SY5Y cells, tritium-labeled Compound A 0.05-100.0 nM, 37° C. for 2 hours, FIG. 2): higher
SMILES: OC1CN(CCCOCCc2ccc3sccc3c2)C1 [Compound A]
